Results: article PMC10066365, “Nemacol is a small molecule inhibitor of C. elegans vesicular acetylcholine transporter with anthelmintic potential” (Nature Communications, 2023)
Several values for one entry are separate records, joined by “and”; a condition that tells them apart may be missing. Equal values may be shown once. Read-outs that look alike come from different tables or passages of the source.

How the values were obtained:
[1] = system: Dirofilaria immitis L3/L4; experiment: Dirofilaria immitis L3/L4 motility assay (DiroImager, 72 h); conditions: Dirofilaria immitis L4
C. elegans = C. elegans motor phenotype scoring on solid media (Punc/jerky-unc, coiled, paralyzed), wild-type young adults; assay type: in vivo, Caenorhabditis elegans; conditions: for atypical locomotion (number of animals) / coiled (number of animals) / no phene (number of animals) / paralyzed (number of animals) / any phene: mean % fraction of young adults exhibiting any phenotype (coiled, jerky-Unc or paralyzed): one hour; for atypical locomotion (number of animals) / coiled (number of animals) / no phene (number of animals) / paralyzed (number of animals): young adults, 20 animals per trial, single technical replicate; for any phene: mean % fraction of young adults exhibiting any phenotype (coiled, jerky-Unc or paralyzed): mean of three biological replicates
Pristionchus pacificus = Pristionchus pacificus motor disruption dose-response on solid media, 1 h; conditions: for mean % any phene: any phenotype (coiled, jerky-Unc or paralyzed) at one hour, mean of three biological replicates
rat VAChT = molecular target: T1, rat VAChT (Rattus norvegicus, UniProt Q62666); experiment: [3H]Vesamicol competitive radioligand binding, PC12 cells expressing ratVAChT
T1 construct: expressed in transfected cells; host or cells: rat PC12 (PC12 A123.7) cells, stably transfected; shared by Dr. Ali Roghani (Texas Tech University)
T1 sequence (Q62666 1-530): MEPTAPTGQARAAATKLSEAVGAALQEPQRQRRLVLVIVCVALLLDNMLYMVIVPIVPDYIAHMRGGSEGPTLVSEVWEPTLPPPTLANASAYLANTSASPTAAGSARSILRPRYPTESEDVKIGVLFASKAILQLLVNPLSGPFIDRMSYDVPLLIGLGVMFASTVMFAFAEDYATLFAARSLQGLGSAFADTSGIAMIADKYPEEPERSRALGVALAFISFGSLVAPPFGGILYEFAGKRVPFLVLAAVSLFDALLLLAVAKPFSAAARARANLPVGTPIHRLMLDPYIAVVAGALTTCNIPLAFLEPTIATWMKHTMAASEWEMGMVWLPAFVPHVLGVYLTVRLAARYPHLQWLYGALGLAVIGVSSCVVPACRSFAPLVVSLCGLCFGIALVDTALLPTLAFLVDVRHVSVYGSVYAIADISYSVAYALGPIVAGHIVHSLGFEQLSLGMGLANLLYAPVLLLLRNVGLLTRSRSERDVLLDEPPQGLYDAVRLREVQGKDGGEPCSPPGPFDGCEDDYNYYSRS

[2] = system: Dirofilaria immitis microfilariae; experiment: Dirofilaria immitis microfilariae immobility assay (DiroImager, 72 h); conditions: Dirofilaria immitis microfilariae
Method in brief: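 About 250 freshly purified microfilariae of the Missouri isolate per well in supplemented RPMI 1640, exposed to compound for 72 h. Motility scored by automated whole-plate optical imaging; medium with 1% DMSO as negative control.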

Haemonchus contortus = Haemonchus contortus L3 Migration Trap Assay (motility, 24 h exposure); conditions: hc weybridge, motilityTrap24hNoWash, 24 h, single wells
[3] = conc 3.75, count of 20 animals per trial, one hour
[4] = conc 15, count of 20 animals per trial, one hour
[5] = conc 60, count of 20 animals per trial, one hour

FC(F)(F)c1cccc(N2CCN(CC3CCCC3)CC2)c1 [Nemacol-63]
% effect (motility), DIROIM L4 ([1]; 10 µM): 10%
% effect (motility), DIROIM L4 ([1]; 50 µM): 0%
atypical locomotion (number of animals) (C. elegans; 3.75uM): 0 and 4 and 6 and 2
coiled (number of animals) (C. elegans; 3.75uM): 0
no phene (number of animals) (C. elegans; 3.75uM): 20 and 16 and 14 and 18
paralyzed (number of animals) (C. elegans; 3.75uM): 0
any phene: mean % fraction of young adults exhibiting any phenotype (coiled, jerky-Unc or paralyzed) (C. elegans; 3.75uM): 18.3333%
atypical locomotion (number of animals) (C. elegans; 15uM): 14 and 16 and 18 and 15 and 17
coiled (number of animals) (C. elegans; 15uM): 3 and 0 and 2 and 1
no phene (number of animals) (C. elegans; 15uM): 0 and 4 and 3
paralyzed (number of animals) (C. elegans; 15uM): 3 and 4 and 0
any phene: mean % fraction of young adults exhibiting any phenotype (coiled, jerky-Unc or paralyzed) (C. elegans; 15uM): 94.1667%
atypical locomotion (number of animals) (C. elegans; 60uM): 8 and 10 and 11 and 9 and 14 and 15
coiled (number of animals) (C. elegans; 60uM): 1 and 3 and 2 and 4
no phene (number of animals) (C. elegans; 60uM): 0 and 5 and 1
paralyzed (number of animals) (C. elegans; 60uM): 11 and 7 and 9 and 0
any phene: mean % fraction of young adults exhibiting any phenotype (coiled, jerky-Unc or paralyzed) (C. elegans; 60uM): 95%
EC50 (C. elegans; Caenorhabditis elegans, any motor phenotype after 1 h on solid media, ± 95% CI, read-out: C. elegans - motor disruption EC50): 6.1 ± 2.1 µM
EC50 (Pristionchus pacificus; Pristionchus pacificus, 1 h, read-out: P. pacificus motor disruption EC50): > 60 µM
mean % any phene (Pristionchus pacificus; conc 3.75): 0.8333%
rep 1 atypical locomotion (Pristionchus pacificus; [3]): 0
rep 1 coiled (Pristionchus pacificus; [3]): 0
rep 1 no phene (Pristionchus pacificus; [3]): 20
rep 1 paralyzed (Pristionchus pacificus; [3]): 0
rep 2 atypical locomotion (Pristionchus pacificus; [3]): 1
rep 2 coiled (Pristionchus pacificus; [3]): 0
rep 2 no phene (Pristionchus pacificus; [3]): 19
rep 2 paralyzed (Pristionchus pacificus; [3]): 0
rep 3 atypical locomotion (Pristionchus pacificus; [3]): 0
rep 3 coiled (Pristionchus pacificus; [3]): 0
rep 3 no phene (Pristionchus pacificus; [3]): 20
rep 3 paralyzed (Pristionchus pacificus; [3]): 0
mean % any phene (Pristionchus pacificus; conc 15): 1.667%
rep 1 atypical locomotion (Pristionchus pacificus; [4]): 0
rep 1 coiled (Pristionchus pacificus; [4]): 0
rep 1 no phene (Pristionchus pacificus; [4]): 20
rep 1 paralyzed (Pristionchus pacificus; [4]): 0
rep 2 atypical locomotion (Pristionchus pacificus; [4]): 0
rep 2 coiled (Pristionchus pacificus; [4]): 0
rep 2 no phene (Pristionchus pacificus; [4]): 19 and 20
rep 3 atypical locomotion (Pristionchus pacificus; [4]): 0
rep 3 coiled (Pristionchus pacificus; [4]): 0
rep 3 no phene (Pristionchus pacificus; [4]): 20 and 19
mean % any phene (Pristionchus pacificus; conc 60): 10.8333%
rep 1 atypical locomotion (Pristionchus pacificus; [5]): 4 and 3
rep 1 no phene (Pristionchus pacificus; [5]): 16
rep 1 paralyzed (Pristionchus pacificus; [5]): 0
rep 2 atypical locomotion (Pristionchus pacificus; [5]): 1 and 2
rep 2 coiled (Pristionchus pacificus; [5]): 0
rep 2 no phene (Pristionchus pacificus; [5]): 18
rep 3 coiled (Pristionchus pacificus; [5]): 0
rep 3 no phene (Pristionchus pacificus; [5]): 20 and 19
rep 3 paralyzed (Pristionchus pacificus; [5]): 0
activity ratio, mammalian VAChT Ki to C. elegans in vivo EC50 (rat VAChT): 1.10
Ki (rat VAChT; [3H]Vesamicol binding, PC12, experiment 1, read-out: expt 1 Ki (M) vs. rat VAChT (PC12)): 4.89e-06 M
Ki (rat VAChT; [3H]Vesamicol binding, PC12, experiment 2, read-out: expt 2 Ki (M) vs. rat VAChT (PC12)): 8.47e-06 M
Ki (rat VAChT; [3H]Vesamicol binding, rat VAChT (PC12), mean of 2-3 experiments, read-out: mean Ki): 6.68e-06 M
Ki (rat VAChT; [3H]Vesamicol displacement, mean, read-out: ratVAChT Ki): 6.68e-06 M
% effect (motility), DIROIM MF ([2]; 0.016 µM): 0%
% effect (motility), DIROIM MF ([2]; 0.08 µM): 0%
% effect (motility), DIROIM MF ([2]; 0.4 µM): 0%
% effect (motility), DIROIM MF ([2]; 2 µM): 0%
% effect (motility), DIROIM MF ([2]; 10 µM): 0%

O=[N+]([O-])c1ccc(N2CCN(CC3CCCCC3)CC2)cc1 [Nemacol_1]
efficacy (Haemonchus contortus; dose 0.0195312 µM): 0
efficacy (Haemonchus contortus; dose 0.078125 µM): 0
efficacy (Haemonchus contortus; dose 0.3125 µM): 0
efficacy (Haemonchus contortus; dose 1.25 µM): 0
efficacy (Haemonchus contortus; dose 5 µM): 0
